Experiment [1] relates to CNS cancer (SF539). Kind of experiment: Growth inhibition of human tumor cell lines: CNS cancer (SF539). The class given is cell-based. Conditions: SF-539, cell line E = CNS cancer (SF539), NCI testing. Here is the method: (§1) Selected compounds were evaluated by the National Cancer Institute, Bethesda, Md. against 60 human tumor cell lines according to procedures described in Principles and Practices of Oncology, volume 3, issue number 10, pp. 1-12. Results of the testing against representative cell lines including the test compound number, and the GI50 values (μM) are set forth in Table 3. The GI50 value is the concentration required to inhibit cell growth by 50% as compared to untreated control cultures.

The test system of experiment [2] is tubulin. Kind of experiment: Inhibition of microtubule assembly. Type of experiment: biochemical, calf. Conditions: preincubated 1 h at 37° C. Here is the method: (§2) Compounds were evaluated for their ability to inhibit tubulin assembly into microtubules by comparing the extent of cold-reversible assembly in the presence of each test compound with controls lacking the test compound. Tubulin was isolated from calf brain tissue by two cycles of assembly/disassembly as described by Vallee, R. B. in Methods in Enzymology, vol. 134, pp. 89-104. Assay mixtures contained 1 mg/ml of purified tubulin in 1 M sodium glutamate, pH 6.6, 1 millimolar (mM) MgCl2, and the test compound, which was added as a solution in DMSO. The final concentration of DMSO in each assay was 2% (v/v). Assay mixtures were preincubated at 37° C. for 1 h, then chilled on ice for 5 min. Microtubule assembly was initiated by addition of guanosine triphosphate (0.1 mM), and incubation at 37° C. Assembly was followed turbidimetrically at 350 nm for 20 minutes (min) using a temperature-controlled cell in a Cary 2200 spectrophotometer. Since microtubules undergo depolymerization at 0° C., assembly was confirmed by measuring the reduction in turbidity following incubation for 30 min at 0° C. The difference in absorbance before and after incubation for 30 min at 0° C. (ΔA350) represents the extent of microtubule assembly. Inhibition of assembly was calculated by subtracting the (ΔA350) values for treatments with test compounds from the (ΔA350) for controls without test compound, and expressing this difference as a percentage of the (ΔA350) value for the control. Results including test compound number, test compound concentration in micromoles per liter (μM) and percent inhibition are set forth in Table 11.

Experiment [3] concerns mouse lymphoma cell line L5178Y. Description: Growth inhibition of mouse lymphoma cells (L5178Y), 48 h. To be noted: 48 hours; for inhibition at 2 µM: 2 micromolar; for inhibition at 10 µM: 10 micromolar, read-out: Inhibition of growth. The class given is cell-based. How it is done: Effects of compounds on growth of mouse lymphoma cell line L5178Y, were determined as follows. Cells were grown in Fischer's medium (obtained from Life Technologies, Inc., Gaithersburg, Md.) containing 0.24 grams per liter (g/l) sodium pyruvate, 1.12 g/l surfactant (Pluronic F-68, from BASF Corporation, Parsippany, N.J.), and 10% by volume (10% v/v) heat-inactivated horse serum (obtained from Life Technologies, Inc) at 37° C. To 30 ml aliquots of cell suspension (2×10^4 cells per milliliter (mL)) in exponential growth phase were added test compounds dissolved in dimethylsulfoxide (DMSO) at various concentrations such that the final DMSO concentration in the mixtures was 0.25%. Tubes were gassed with 5% CO2 then incubated on a roller drum apparatus. After 48 hours the cells were treated with 0.1% trypsin (Life Technologies, Inc.,) for 10 minutes and counted in a Coulter Counter equipped with a 140 micrometer (μM) aperture. Percent inhibition of growth was calculated by comparing the number of cells in assays containing test compound with the number of cells in controls lacking the test compound.

Experiment [4] relates to Small cell lung cancer (DMS 114). Kind of experiment: Growth inhibition of human tumor cell lines: Small cell lung cancer (DMS 114). To be noted: cell line C = Small cell lung cancer (DMS 114), NCI testing. Type of experiment: cell-based. How it is done: as §1
The subject of experiment [5] is mouse lymphoma cells. Kind of experiment: Effect on mitosis in mouse lymphoma cells (visible chromosomes). The class given is cell-based. Conditions: 2 μM, 7 hours. Here is the method:
Compound 14 was dissolved in DMSO at 0.8 mM and 75 microliters (μL) of this solution was added to tubes containing 30 ml of cell suspension at 1.2×10^5 /mL grown under the conditions described in Example 1. Cells in control tubes received 75 μL of DMSO alone. Tubes were gassed with 5% CO2, then incubated on a roller drum apparatus for 7 hours. The cells were treated with hypotonic medium (3-fold diluted growth medium) and fixed in acetic acid:methanol (1:3, v/v). After staining with aceto-orcein (method described in L. La Cour, Stain Technology, vol. 16, pp. 169-174 (1941)) the percentage of cells with visible chromosomes in treated and control cells was determined based on examination of 400 cells per sample.

The test system of experiment [6] is Ovarian cancer (OVCAR8). Description: Growth inhibition of human tumor cell lines: Ovarian cancer (OVCAR8). The class given is cell-based. To be noted: OVCAR-8, cell line G = Ovarian cancer (OVCAR8), NCI testing. Here is the method:
as §1

Experiment [7] relates to Leukemia (SR). Kind of experiment: Growth inhibition of human tumor cell lines: Leukemia (SR). The class given is cell-based. Conditions: cell line A = Leukemia (SR), NCI testing. Here is the method:
as §1

The test system of experiment [8] is Nonsmall cell lung cancer (NCIH522). Description: Growth inhibition of human tumor cell lines: Nonsmall cell lung cancer (NCIH522). The class given is cell-based. To be noted: NCI-H522, cell line B = Nonsmall cell lung cancer (NCIH522), NCI testing. Here is the method: as §1
Experiment [9] concerns Colon cancer (HCT116). Kind of experiment: Growth inhibition of human tumor cell lines: Colon cancer (HCT116). Type of experiment: cell-based. Conditions: HCT-116, cell line D = Colon cancer (HCT116), NCI testing. Here is the method: as §1
Experiment [10] concerns Renal cancer (CAKI1). Kind of experiment: Growth inhibition of human tumor cell lines: Renal cancer (CAKI1). The class given is cell-based. Conditions: CAKI-1, cell line H = Renal cancer (CAKI1), NCI testing. Here is the method: as §1
Experiment [11] has as its system tubulin. Description: Effect of preincubation time with tubulin on inhibition of microtubule assembly. Type of experiment: biochemical, calf. To be noted: 16 μM. How it is done:
as §2
Compound 14 (16 μM) was preincubated with tubulin under the conditions described in Example 4 for 0, 1, 2, 4 and 6 hours before initiating assembly by addition of guanosine triphosphate (0.1 mM), and incubation at 37° C. Inhibition of assembly was determined as in Example 4, and results including preincubation time and percent inhibition of assembly are set forth in Table 12.

Experiment [12] concerns Melanoma (SKMEL-2). Kind of experiment: Growth inhibition of human tumor cell lines: Melanoma (SKMEL-2). The class given is cell-based. To be noted: SK-MEL-2, cell line F = Melanoma (SKMEL-2), NCI testing. Here is the method:
as §1

Experiment [13] is described as follows: Biological activity of enantiomers. Conditions: vs corresponding R enantiomers; test not stated.

For the compound `CCC(C)(NC(=O)c1cc(Cl)cc(Cl)c1)C(=O)CCl` (stereo not shown) [Compound 14], the GI50 – broadly, the concentration that inhibits growth by half – is 2.1 µM in [1]; 0.72 µM in experiment [4]; 2.79 µM in experiment [6]; 0.83 µM in experiment [7]; 1.98 µM in [8]; 2.31 µM in experiment [9]. The figures for the GI50 in [10] and in experiment [12] were 3.83 µM and 1.94 µM, respectively. Also, the “Percent inhibition of microtubule assembly” value (“Percent inhibition” for short) in [2] (50 μM) was 56.3%; in experiment [11] (preincubation time 0 h), 0%; in [11] (preincubation time 1 h), 5.1%; in experiment [11] (preincubation time 2 h), 22.6%; in [11] (preincubation time 4 h), 57.6%; in experiment [11] (preincubation time 6 h) it was 87.2%. Also, in experiment [3], the inhibition (usually the change of the read-out against control, counted positive when it falls) at 2 µM amounted to 95%. The “Normal mitotic figures in treated cells” value in [5] (vs control) was “lacking in the treated cells”. Moreover, the “Number of cells with visible chromosomes” value in experiment [5] (vs control) is recorded as “produced an increase in the number of cells with visible chromosomes”. Also, the “Percentage of cells with visible chromosomes” value in experiment [5] (control 3.9) came to 27.4 Percentage.

On to `CCC(C)(NC(=O)c1cncc(Br)c1)C(=O)CCl` (stereo not shown) [Compound 44], for which the GI50 was determined as 2.21 µM in [1]; 0.33 µM in [4]; 1.96 µM in experiment [6]; 0.33 µM in experiment [7]; 0.35 µM in experiment [8]; 0.67 µM in [9]. Besides, the GI50 was 2.36 µM in [10] and 0.41 µM in experiment [12]. Further, the “Percent inhibition” value in experiment [2] (50 μM) came out at 100.0%. Also, in [3], at 2 µM the inhibition was 95%.

Consider `CCC(C)(NC(=O)c1cccc(Br)c1)C(=O)C(Br)Br` (stereo not shown) [Compound 7], for which the 50% growth inhibitory concentration (GI50) was 2.29 µM in [1]; 1.83 µM in [4]; 3.01 µM in [6]; 2.32 µM in experiment [7]; 1.08 µM in experiment [8]; 3.39 µM in experiment [9]. Also, the values for the GI50 in experiment [10] and in [12] were 2.82 µM and 2.74 µM, respectively. Further, the “Percent inhibition” value in [2] (5 μM) came out at 97.0%. In experiment [3], this compound registered an inhibition at 2 µM of 92%.

As for `CCC(C)(NC(=O)c1cc(C)cc(C#N)c1)C(=O)CCl` (stereo not shown) [Compound 23], the GI50 in [1] worked out at 2.55 µM; in [4] it was 2.19 µM; in experiment [6], 3.43 µM; in experiment [7], 0.65 µM; in experiment [8], 2.05 µM; in experiment [9], 3.28 µM. Moreover, the GI50 in [10] stood at 2.81 µM; in experiment [12], 2.56 µM. In addition, in experiment [2] (50 μM), the “Percent inhibition” value was found to be 50.5%. The inhibition at 10 µM in experiment [3] stood at 95%.

`CCC(C)(NC(=O)c1cc(Cl)cc(C=NOC)c1)C(=O)CCl` (stereo not shown) [Compound 4]: the GI50 was determined as 2.31 µM in experiment [1]; 1.54 µM in experiment [4]; 2.62 µM in [6]; 0.59 µM in experiment [7]; 2.14 µM in experiment [8]; 2.58 µM in experiment [9]. The GI50 in [10] came out at 3.07 µM; in experiment [12], 3.24 µM. Further, the “Percent inhibition” value in experiment [2] (50 μM) stood at 89.8%. Besides, the inhibition at 2 µM in experiment [3] was determined as 95%.

In the case of `CCC(C)(NC(=O)c1cc(Cl)cc(Cl)c1)C(=O)C(Br)Br` (stereo not shown) [Compound 13], the GI50 in experiment [1] was found to be 1.9 µM; in [4] it was 0.24 µM; in experiment [6], 1.82 µM; in [7], 0.28 µM; in experiment [8], 0.28 µM; in experiment [9], 1.39 µM. For the same compound, the GI50 amounted to 1.92 µM in experiment [10] and 2.08 µM in experiment [12]. Besides, in experiment [2] (5 μM), the “Percent inhibition” value was 90.9%. The same compound returned an inhibition at 2 µM in experiment [3] of 98%.

Consider `CC(C)(NC(=O)c1cc(Cl)cc(Cl)c1)C(=O)CCl` [Compound 28], for which the GI50 in [1] turned out to be 9.79 µM; in experiment [4] it was 5.38 µM; in experiment [6] it was 12.4 µM; in [7], 3.01 µM; in experiment [8], 2.61 µM; in experiment [9] it was 14.2 µM. Moreover, the GI50 in [10] stood at 12.9 µM; in experiment [12], 12.2 µM. Besides, in experiment [2] (50 μM), the “Percent inhibition” value is 22.3%. Moreover, the inhibition at 10 µM in [3] came out at 87%.

Regarding `CCC(C)(NC(=O)c1cc(Cl)cc(Cl)c1)C(=O)CSC#N` (stereo not shown) [Compound 26], the GI50 in experiment [1] came to 3.45 µM; in experiment [4], 3.71 µM; in experiment [6], 11.9 µM; in [7], 5.69 µM; in experiment [8] it was 3.77 µM; in experiment [9] it was 4.85 µM. The values for the GI50 in [10] and in [12] were 13.3 µM and 12.2 µM, respectively. For the same compound, the “Percent inhibition” value in experiment [2] (50 μM) worked out at 56.6%. Further, the inhibition at 10 µM in [3] is 67%.

For `CC[C@](C)(NC(=O)c1cc(Cl)c(C)c(Cl)c1)C(=O)CCl` [S enantiomer of compound 32], the “Activity of S enantiomer relative to R enantiomer” value in experiment [13] is listed as “more active”.

On to `CC[C@](C)(NC(=O)c1cc(Cl)cc(Cl)c1)C(=O)CCl` [S enantiomer of compound 14], for which the “Activity of S enantiomer relative to R enantiomer” value in experiment [13] is “more active”.

Regarding `CC(C)(NC(=O)c1cc(Cl)cc(Cl)c1)C(=O)C(Br)Br` [Compound 17], the GI50 in [1] was found to be 2.25 µM; in experiment [4] it was 2.09 µM; in [6], 3 µM; in [7], 1.79 µM; in [8] it was 1.04 µM; in [9], 3.65 µM. Also, the GI50 in experiment [10] is 2.37 µM; in [12] it was 2.71 µM. Also, the “Percent inhibition” value in experiment [2] (50 μM) was found to be 85.9%. In experiment [3], this compound returned an inhibition at 2 µM of 97%.

The values are drawn from patent US6140362A, “Method for inhibiting the growth of mammalian cells” (Rohm and Haas Company, priority 1997, dated 2000).
